What was measured:
[1] = biological target: T1, microtubular protein (tubulin) from pig brains (Sus scrofa, UniProt P02550+P02554); test: Inhibition of tubulin polymerization (turbidimetry at 340 nm); assay type: biochemical; settings: pig brain microtubular protein 1 mg/ml, 0.25 mmol GTP, 37° C.
T1 construct: microtubular protein was purified from pig brains via cydic assembling/disassembling; from tissue; host or cells: pig brain
Method: The in-vitro testing of the tubulin polymerization influence was performed as follows:
The buffer system used had the following composition: 20 mmol of PIPES (1,4-piperazine-diethane-sulfonic acid, pKa 6.8), 80 mmol of NaCl, 0.5 mmol of MgCl2, 1 mmol of EGTA (ethylene glycol-bis-(2-aminoethylene)-tetraacetic acid).
For active ingredient testing, protein concentrations of 1 mg/ml (about 10^−5 mmol of tubulin) were used. The determination of protein was carried out according to the Lowry Method (Lowry et al. J. Biol. Chem. 1951, 193, 265-75) with bovine serum albumin as a standard. The assembling of microtubuli was carried out in the presence of 0.25 mmol of GTP and heating the samples to 37° C.
The microtubulus formation was examined by means of turbidimetry at a wavelength of 340 nm.
Testing of the active ingredients was carried out by their addition at the beginning of the assembling or in the state of equilibrium. Deviations of turbidity curves from the control characterize its activity. To monitor action and to evaluate the measured turbidity values, a transmission electron microscopic study (CEM 902 A, Zeiss/Oberkochen) of the assemblates was always performed after negative staining with 1% aqueous uranyl acetate.

[2] = system: NCl-H460 human non-small-cell lung cancer cells; test: Inhibition of cell proliferation (crystal violet), NCl-H460; assay type: cell-based; settings: NCl-H460, 4 days incubation
Method: (§1) Cell cultures of the following cell lines were prepared in 96-well microtiter plates: • 1. MaTu/ADR multidrug-resistant human breast tumor cells (Epo GmbH Berlin), 5000 cells/well. • 2. HCT116 human colon tumor cells (ATCC CCL-247), 3000 cells/well. • 3. NCl-H460 human non-small-cell lung cancer cells (ATCC HTB-177), 3000 cells/well. • 4. DU145 human prostate tumor cells (ATCC HTB-81), 5000 cells/well. • 5. HMVEC human primary dermal microvascular endothelial cells, 7500 cells/well.
(§2) After 24 hours of incubation in a cell culture incubator at 37° C., the cells of a microtiter plate were stained with crystal violet (reference plate), while the cells in the test plates were incubated for 4 days with the test substances in the concentrations […], as well as with the DMSO solvent by itself (solvent control). The cell proliferation was determined by staining cells with crystal violet. The extinction of the crystal violet was determined by photometry at 595 nm. The percentage of the change in the cell number in the test plates was determined after the extinction values were normalized to the reference plate (0%) and to the solvent control (100%). The semi-maximal inhibition of the cell growth (IC50) was determined as the substance concentration, in which 50% of the cell number of the solvent controls were present.

[3] = system: HCT116 human colon tumor cells; test: Inhibition of cell proliferation (crystal violet), HCT116; assay type: cell-based; settings: HCT116, 4 days incubation
Method: as §1, §2

[4] = system: DU145 human prostate tumor cells; test: Inhibition of cell proliferation (crystal violet), DU145; assay type: cell-based; settings: DU145, 4 days incubation
Method: as §1, §2

[5] = system: MaTu/ADR multidrug-resistant human breast tumor cells; test: Inhibition of cell proliferation (crystal violet), MaTu/ADR; assay type: cell-based; settings: 4 days incubation
Method: as §1, §2

[6] = system: HMVEC human primary dermal microvascular endothelial cells; test: Inhibition of cell proliferation (crystal violet), HMVEC; assay type: cell-based; settings: 4 days incubation
Method: as §1, §2

T1 sequence (P02550 whole entry): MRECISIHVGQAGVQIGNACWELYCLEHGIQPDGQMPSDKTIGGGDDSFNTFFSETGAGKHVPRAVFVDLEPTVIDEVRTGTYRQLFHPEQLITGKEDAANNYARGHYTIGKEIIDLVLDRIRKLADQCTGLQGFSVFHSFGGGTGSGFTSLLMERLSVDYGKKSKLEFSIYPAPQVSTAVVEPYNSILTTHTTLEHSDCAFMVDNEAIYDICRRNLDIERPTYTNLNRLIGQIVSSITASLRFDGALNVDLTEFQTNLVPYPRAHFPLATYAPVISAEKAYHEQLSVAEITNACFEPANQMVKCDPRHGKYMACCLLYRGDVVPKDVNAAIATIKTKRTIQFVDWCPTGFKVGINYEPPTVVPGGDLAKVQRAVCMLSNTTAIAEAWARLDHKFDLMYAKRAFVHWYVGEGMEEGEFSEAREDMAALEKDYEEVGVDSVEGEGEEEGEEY
T1 sequence (P02554 whole entry): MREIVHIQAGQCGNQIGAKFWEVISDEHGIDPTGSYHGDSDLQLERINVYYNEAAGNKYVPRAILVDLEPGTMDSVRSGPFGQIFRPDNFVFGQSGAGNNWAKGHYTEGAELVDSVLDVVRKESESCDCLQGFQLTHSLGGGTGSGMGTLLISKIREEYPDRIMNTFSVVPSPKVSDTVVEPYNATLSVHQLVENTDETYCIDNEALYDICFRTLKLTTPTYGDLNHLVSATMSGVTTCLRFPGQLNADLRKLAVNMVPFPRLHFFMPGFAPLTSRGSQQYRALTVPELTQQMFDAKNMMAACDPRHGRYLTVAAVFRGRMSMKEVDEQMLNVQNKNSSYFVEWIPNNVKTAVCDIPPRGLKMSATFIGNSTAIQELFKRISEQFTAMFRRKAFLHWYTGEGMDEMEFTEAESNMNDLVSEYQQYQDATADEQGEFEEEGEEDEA

SMILES	IC50 [2] [nM]	IC50 [3] [nM]	IC50 [4] [nM]	IC50 [5] [nM]	IC50 [1] [nM]	IC50 [6] [nM]	IC50 ([2]; Homo sapiens, 96 h) [nM]	IC50 ([3]; Homo sapiens, HCT-116, 96 h) [nM]	IC50 ([4]; Homo sapiens, DU-145, 96 h) [nM]	IC50 ([5]; Homo sapiens, 96 h) [nM]	IC50 ([6]; Homo sapiens, 96 h) [nM]
CC[C@]12CC[C@@H]3c4cc(OC)c(OS(N)(=O)=O)cc4CC[C@H]3[C@@H]1CC[C@@H]2O [(1), 17β-Hydroxy-2-methoxy-18a-homoestra-1,3,5(10)-trien-3-yl sulfamate]					500		< 100	< 100	150	< 100	< 100
CC[C@@]12CCC[C@H]1[C@@H]1CCc3cc(OS(N)(=O)=O)c(OC)cc3[C@H]1CC2 [(4), 2-Methoxy-18a-homoestra-1,3,5(10)-trien-3-yl sulfamate]					1800		500	600	600	450	600
CCc1cc2c(cc1OS(N)(=O)=O)CC[C@@H]1[C@@H]2CC[C@]2(CC)[C@@H](OS(N)(=O)=O)CC[C@@H]12 [(6), 2-Ethyl-18a-homoestra-1,3,5(10)-triene-3,17β-diyl Sulfamate]	180	180	180	100		< 100					
CC(=O)O[C@H]1C(=O)[C@@]2(C)[C@H]([C@H](OC(=O)c3ccccc3)[C@]3(O)C[C@H](OC(=O)[C@H](O)[C@@H](NC(=O)c4ccccc4)c4ccccc4)C(C)=C1C3(C)C)[C@]1(OC(C)=O)CO[C@@H]1C[C@@H]2O [Taxol, reference compound]							4	4	4	400	4

Continued, in another order:

IC50 [2] [nM]	IC50 [3] [nM]	IC50 [4] [nM]	IC50 [5] [nM]	SMILES	IC50 [1] [nM]	IC50 [6] [nM]	IC50 ([2]; Homo sapiens, 96 h) [nM]	IC50 ([3]; Homo sapiens, HCT-116, 96 h) [nM]	IC50 ([4]; Homo sapiens, DU-145, 96 h) [nM]	IC50 ([5]; Homo sapiens, 96 h) [nM]	IC50 ([6]; Homo sapiens, 96 h) [nM]
1800	1100	1900	200	COc1cc2c(cc1O)CC[C@@H]1[C@@H]2CC[C@]2(C)[C@@H](O)CC[C@@H]12 [2-Methoxyestradiol, reference compound]	2700	2200					
300	400	900	100	CCOc1cc2c(cc1OS(N)(=O)=O)CC[C@@H]1[C@@H]2CC[C@]2(CC)[C@@H](O)CC[C@@H]12 [(2), 2-Ethoxy-17β-hydroxy-18a-homoestra-1,3,5(10)trien-3-yl sulfamate]		500					
130	< 100	190	< 100	CC[C@]12CC[C@@H]3c4cc(OC)c(OS(N)(=O)=O)cc4CC[C@H]3[C@@H]1CC[C@@H]2OC [(5), 2,17β-Dimethoxy-18a-homoestra-1,3,5(10)-trien-3-yl Sulfamate]		< 100					

Source: patent publication US20060211670A1, “Antitumoral18a-homoestra-1,3,5(10)-trien-3yl 2-substituted sulfamates” (priority 2003, published 2006)
